Patent publication US20170050957A1, “4-AMINO-6-(HETEROCYCLIC)PICOLINATES AND 6-AMINO-2-(HETEROCYCLIC)PYRIMIDINE-4-CARBOXYLATES AND THEIR USE AS HERBICIDES” (Dow AgroSciences LLC, priority 2013, published 2017)
Read-outs that look alike come from different tables or passages of the source.

Assays:
[1] = test system: Key Broadleaf Weed and Crop Species; assay: Post-emergent Test II herbicidal activity (Table 15); format: in vivo; conditions: post-emergence, 336 h, 14 d; for pest or weed control at 35 g/ha: 35 g ai/ha; for pest or weed control at 70 g/ha: 70 g ai/ha; for pest or weed control at 140 g/ha: 140 g ai/ha
Summary of the method: (§1)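 Greenhouse-grown seedlings at first/second true leaf receive a track spray at 187 L/ha, using a highest rate plus two-fold serial dilutions down to 1/16×. Watering is by subirrigation to avoid wash-off. Percent injury (0-100) is judged by eye at 14 d against untreated plants.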

[2] = test system: Key Grass and Sedge Weeds as well as Grass Crops; assay: Post-emergent Test II herbicidal activity (Table 16); format: in vivo; conditions: post-emergence, 336 h, 14 days after application; for pest or weed control at 35 g/ha: 35 g ai/ha; for pest or weed control at 70 g/ha: 70 g ai/ha; for pest or weed control at 140 g/ha: 140 g ai/ha
Summary of the method: as §1

[3] = Abutilon theophrasti, velvetleaf (Abutilon theophrasti), read-out: Visual Growth Reduction (%) 14 Days After Application, ABUTH
[4] = Amaranthus retroflexus, redroot pigweed (Amaranthus retroflexus), read-out: Visual Growth Reduction (%) 14 Days After Application, AMARE
[5] = Brassica napus, oilseed rape, canola (Brassica napus), read-out: Visual Growth Reduction (%) 14 Days After Application, BRSNN
[6] = Chenopodium album, lambsquarters (Chenopodium album), read-out: Visual Growth Reduction (%) 14 Days After Application, CHEAL
[7] = Euphorbia heterophylla, wild poinsettia (Euphorbia heterophylla), read-out: Visual Growth Reduction (%) 14 Days After Application, EPHHL
[8] = Helianthus annuus, sunflower (Helianthus annuus), read-out: Visual Growth Reduction (%) 14 Days After Application, HELAN
[9] = Cyperus esculentus, yellow nutsedge (Cyperus esculentus), read-out: Visual Growth Reduction (%) 14 Days After Application CYPES
[10] = Echinochloa crus-galli, barnyardgrass (Echinochloa crus-galli), read-out: Visual Growth Reduction (%) 14 Days After Application ECHCG
[11] = Oryza sativa, rice (Oryza sativa), read-out: Visual Growth Reduction (%) 14 Days After Application ORYSA
[12] = Setaria faberi, giant foxtail (Setaria faberi), read-out: Visual Growth Reduction (%) 14 Days After Application SETFA
[13] = Triticum aestivum, wheat, spring (Triticum aestivum), read-out: Visual Growth Reduction (%) 14 Days After Application TRZAS
[14] = Zea mays, maize, corn (Zea mays), read-out: Visual Growth Reduction (%) 14 Days After Application ZEAMX

Nc1c(F)c(-c2ccc3scnc3c2)nc(C(=O)O)c1Cl [Compound 6.02]
pest or weed control at 35 g/ha [1, 3]: 85 to 94%
pest or weed control at 70 g/ha [1, 3]: 85 to 94%
pest or weed control at 140 g/ha [1, 3]: 85 to 94%
pest or weed control at 35 g/ha [1, 4]: 95 to 100%
pest or weed control at 70 g/ha [1, 4]: 95 to 100%
pest or weed control at 140 g/ha [1, 4]: 95 to 100%
pest or weed control at 35 g/ha [1, 5]: 95 to 100%
pest or weed control at 70 g/ha [1, 5]: 95 to 100%
pest or weed control at 140 g/ha [1, 5]: 95 to 100%
pest or weed control at 35 g/ha [1, 6]: 95 to 100%
pest or weed control at 70 g/ha [1, 6]: 95 to 100%
pest or weed control at 140 g/ha [1, 6]: 95 to 100%
pest or weed control at 35 g/ha [1, 7]: 95 to 100%
pest or weed control at 70 g/ha [1, 7]: 95 to 100%
pest or weed control at 140 g/ha [1, 7]: 95 to 100%
pest or weed control at 35 g/ha [1, 8]: 95 to 100%
pest or weed control at 70 g/ha [1, 8]: 95 to 100%
pest or weed control at 140 g/ha [1, 8]: 95 to 100%
pest or weed control at 35 g/ha [2, 9]: 45 to 59%
pest or weed control at 70 g/ha [2, 9]: 45 to 59%
pest or weed control at 140 g/ha [2, 9]: 45 to 59%
pest or weed control at 35 g/ha [2, 10]: 75 to 84%
pest or weed control at 70 g/ha [2, 10]: 75 to 84%
pest or weed control at 140 g/ha [2, 10]: 85 to 94%
pest or weed control at 35 g/ha [2, 11]: 0 to 29%
pest or weed control at 70 g/ha [2, 11]: 0 to 29%
pest or weed control at 140 g/ha [2, 11]: 0 to 29%
pest or weed control at 35 g/ha [2, 12]: 0 to 29%
pest or weed control at 70 g/ha [2, 12]: 45 to 59%
pest or weed control at 140 g/ha [2, 12]: 60 to 74%
pest or weed control at 35 g/ha [2, 13]: 0 to 29%
pest or weed control at 70 g/ha [2, 13]: 0 to 29%
pest or weed control at 140 g/ha [2, 13]: 30 to 44%
pest or weed control at 35 g/ha [2, 14]: 0 to 29%
pest or weed control at 70 g/ha [2, 14]: 0 to 29%
pest or weed control at 140 g/ha [2, 14]: 0 to 29%
melting point: 186 to 187 °C
